Data on four molecules can be found in US20230234948A1, “CYCLOPROPYL DIHYDROQUINOLINE SULFONAMIDE COMPOUNDS” (AMGEN INC., priority 2020, published 2023).

pIC50: −log10 of the molar value.

The test system of series [1] is CYP3A4. In words: Human CYP 3A4 induction assay (mRNA, cryopreserved human hepatocytes). The format is in vitro ADME. As to conditions: 10 uM test compound, 72 hours, percent of control (rifampin positive control). Here is the method:
Human CYP 3A4 Induction Assay
Cryopreserved human hepatocytes were seeded in 96-well collagen coated plates at 70,000 cells per well in hepatocyte plating media (HPM, final concentrations: 1× Dulbecco's Modified Eagle's Medium, 0.1 μM dexamethasone, 10% fetal bovine serum, 1×ITS, 1×PSG) followed by incubation at 37° C. under 5% CO2 and 90% relative humidity for 2 days to allow hepatocytes to form a confluent layer. On Day 3, hepatocytes were treated with either test compound or rifampin (20 μM, positive control for CYP3A induction) prepared in hepatocyte incubation media ((HIM, final concentrations: 1× William's Medium E, 0.1 μM dexamethasone, 1×ITS, 1×PSG). Treatment was performed for 72 hours with either 2 concentrations (2 μM or 10 μM) or a range of concentrations (0.001 μM to 100 μM) of the test compound to obtain full dose-response curve. Fresh media containing the relevant concentrations of the test compound was replaced every day until the samples were processed. After 72 hours of incubation, samples were processed for mRNA analysis using bDNA technology using manufacturer's instructions (Affymetrix, Fremont, Calif.). Cell viability was tested at the end of the experiment using MTT assay kit (Roche Diagnostics, Basel, Switzerland). Data was analyzed and presented as percent of control (POC) and Emax and EC50 obtained when appropriate according to guidance from Center for Drug Evaluation and Research (CDER), 2006, Guidance for Industry, Drug Interaction Studies—Study Design, Data Analysis, and Implications for Dosing and Labeling.
Cryopreserved human hepatocytes were seeded in 96-well collagen coated plates at 70,000 cells per well in hepatocyte plating media (HPM, final concentrations: 1× Dulbecco's Modified Eagle's Medium, 0.1 μM dexamethasone, 10% fetal bovine serum, 1×ITS, 1×PSG) followed by incubation at 37° C. under 5% CO2 and 90% relative humidity for 2 days to allow hepatocytes to form a confluent layer. On Day 3, hepatocytes were treated with either test compound or rifampin (20 μM, positive control for CYP3A induction) prepared in hepatocyte incubation media ((HIM, final concentrations: 1× William's Medium E, 0.1 μM dexamethasone, 1×ITS, 1×PSG). Treatment was performed for 72 hours with either 2 concentrations (2 μM or 10 μM) or a range of concentrations (0.001 μM to 100 μM) of the test compound to obtain full dose-response curve. Fresh media containing the relevant concentrations of the test compound was replaced every day until the samples were processed. After 72 hours of incubation, samples were processed for mRNA analysis using bDNA technology using manufacturer's instructions (Affymetrix, Fremont, Calif.). Cell viability was tested at the end of the experiment using MTT assay kit (Roche Diagnostics, Basel, Switzerland). Data was analyzed and presented as percent of control (POC) and Emax and EC50 obtained when appropriate, as described in Halladay, J. et al, 2012, An “all-inclusive” 96-well cytochrome P450 induction method: Measuring enzyme activity, mRNA levels, protein levels, and cytotoxicity from one well using cryopreserved human hepatocytes, Pharmacological and Toxicological Methods, 66:270-275.
The cytochrome P450 (CYP) is a well-known superfamily of enzymes that are responsible for the oxidative and reductive metabolic transformation of medications used in clinical practice. In addition, the CYP enzymes are commonly associated with causing many clinically relevant drug-drug interactions. […]

The target in series [2] is T1, Human NaV1.7 (Homo sapiens, UniProt Q15858).
T1 construct: expressed in transfected cells; host or cells: Spiking HEK cells (without Kir2.1 transfection)
T1 sequence (Q15858 whole entry): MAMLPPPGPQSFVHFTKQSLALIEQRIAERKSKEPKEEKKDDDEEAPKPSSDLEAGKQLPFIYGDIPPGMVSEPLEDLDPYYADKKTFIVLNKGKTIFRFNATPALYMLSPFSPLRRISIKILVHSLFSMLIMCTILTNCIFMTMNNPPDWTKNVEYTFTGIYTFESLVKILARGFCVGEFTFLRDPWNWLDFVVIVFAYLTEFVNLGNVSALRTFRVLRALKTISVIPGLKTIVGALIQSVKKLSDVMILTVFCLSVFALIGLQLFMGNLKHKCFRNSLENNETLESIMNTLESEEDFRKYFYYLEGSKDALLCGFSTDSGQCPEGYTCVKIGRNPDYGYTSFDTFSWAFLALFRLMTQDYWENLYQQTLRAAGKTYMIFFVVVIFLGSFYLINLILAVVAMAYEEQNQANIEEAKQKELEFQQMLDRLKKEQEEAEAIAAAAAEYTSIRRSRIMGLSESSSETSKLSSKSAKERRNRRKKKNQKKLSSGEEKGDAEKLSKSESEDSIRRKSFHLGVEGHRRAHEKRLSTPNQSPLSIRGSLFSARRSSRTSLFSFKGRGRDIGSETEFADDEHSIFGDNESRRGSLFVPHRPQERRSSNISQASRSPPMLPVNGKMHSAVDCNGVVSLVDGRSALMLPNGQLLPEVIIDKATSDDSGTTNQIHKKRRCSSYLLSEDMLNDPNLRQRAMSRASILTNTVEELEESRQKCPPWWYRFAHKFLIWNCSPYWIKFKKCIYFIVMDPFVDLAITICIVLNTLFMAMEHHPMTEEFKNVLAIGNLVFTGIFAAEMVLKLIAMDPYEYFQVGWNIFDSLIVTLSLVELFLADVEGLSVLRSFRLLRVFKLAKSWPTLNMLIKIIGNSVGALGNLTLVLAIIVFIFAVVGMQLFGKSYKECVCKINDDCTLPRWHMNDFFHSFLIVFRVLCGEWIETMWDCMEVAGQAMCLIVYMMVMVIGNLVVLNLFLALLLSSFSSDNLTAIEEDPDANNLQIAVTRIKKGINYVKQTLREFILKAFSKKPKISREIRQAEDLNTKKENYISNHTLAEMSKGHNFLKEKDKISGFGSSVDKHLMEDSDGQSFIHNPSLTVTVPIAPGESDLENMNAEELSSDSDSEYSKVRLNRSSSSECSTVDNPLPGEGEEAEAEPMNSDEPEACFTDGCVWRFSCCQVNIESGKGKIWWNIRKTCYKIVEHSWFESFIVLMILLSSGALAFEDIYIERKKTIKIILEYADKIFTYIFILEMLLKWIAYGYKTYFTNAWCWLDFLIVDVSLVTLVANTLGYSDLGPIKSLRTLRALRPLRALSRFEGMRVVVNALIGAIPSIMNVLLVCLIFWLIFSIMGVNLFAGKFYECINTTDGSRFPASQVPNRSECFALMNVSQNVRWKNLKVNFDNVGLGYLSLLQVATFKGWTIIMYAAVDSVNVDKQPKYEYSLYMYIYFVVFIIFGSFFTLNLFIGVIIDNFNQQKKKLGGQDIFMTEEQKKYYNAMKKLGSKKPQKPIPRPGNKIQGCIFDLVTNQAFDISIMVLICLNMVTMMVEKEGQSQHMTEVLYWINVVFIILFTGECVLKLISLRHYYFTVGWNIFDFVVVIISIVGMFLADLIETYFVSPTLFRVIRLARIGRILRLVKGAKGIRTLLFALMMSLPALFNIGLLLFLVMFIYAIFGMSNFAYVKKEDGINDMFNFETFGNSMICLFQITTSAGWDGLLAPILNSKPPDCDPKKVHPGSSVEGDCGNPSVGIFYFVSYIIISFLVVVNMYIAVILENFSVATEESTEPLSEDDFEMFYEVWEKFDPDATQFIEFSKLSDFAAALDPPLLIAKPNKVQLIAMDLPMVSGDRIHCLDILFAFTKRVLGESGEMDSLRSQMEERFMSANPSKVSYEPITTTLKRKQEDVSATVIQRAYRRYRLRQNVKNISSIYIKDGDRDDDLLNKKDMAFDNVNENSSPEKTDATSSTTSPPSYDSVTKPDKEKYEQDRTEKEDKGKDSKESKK
In words: Ionworks Barracuda (IWB) automated patch clamp assay. It counts as cell-based. As to conditions: human NaV1.7 in HEK cells, population patch-clamp, state- and use-dependent voltage protocol; read-out: hNaV1.7 IWB-U IC50. Here is the method:
Ionworks Barracuda (IWB) Automated Patch Clamp Assay (Same Protocol for Both Human and Mouse)
Human NaV1.7 currents were recorded in population patch-clamp mode with the IWB automated electrophysiology system (Molecular Devices, LLC, Sunnyvale, Calif.). Spiking HEK cells (without Kir2.1 transfection) were cultured and prepared for recordings as previously described for IonWorks Quattro testing^1. The external solution consisted of the following (in mM): NaCl 140, KCl 5, CaCl2 2, MgCl2 1, HEPES 10, and glucose 11, pH 7.4, with N-methyl-D-glucamine at 320 mOsmol. […] From a holding potential of −110 mV, currents were elicited by a train of 26 depolarizations of 150 ms duration to −20 mV at a frequency of 5 Hz. Cells were then clamped to −20 mV for a period of 4 minutes in the presence of a single concentration of test compound. Following this compound incubation period, cells were clamped to −110 mV for three seconds to recover unbound channels and put through the same 26 pulse voltage protocol as above. Peak inward current during the 26th pulse to −20 mV in the presence of compound was divided by the peak inward current evoked by the 26th pulse to −20 mV in the absence of compound to determine percent inhibition. Concentration-response curves of percent inhibition as a function of concentration were generated to calculate IC50 values as described in Kornecook, T. J.; Yin, R.; Altmann, S.; et al. Pharmacologic Characterization of AMG8379, a Potent and Selective Small Molecule Sulfonamide Antagonist of the Voltage-Gated Sodium Channel NaV1. 7.
The potency of the compounds of the present invention were evaluated on human NaV1.7 channels using the above described IonWorks Barracuda automated electrophysiology platform that evaluates the ability of compounds to block sodium conductance through NaV1.7 channels. A voltage-protocol that prosecutes both state-dependent as well as use-dependent inhibition was used as these modes of action are thought to be more relevant for the native state of NaV1.7 channels in pain sensing neurons in vivo.
Background: In patch-clamp work, channel activity is measured electrically.

As to `COc1cc([C@@H]2C[C@H]2C(F)(F)F)c(F)cc1-n1c(=O)ccc2cc(S(=O)(=O)Nc3ccon3)c(F)cc21` (atropisomer, axis not shown; (P)) [Example 45, (P)-7-fluoro-1-(5-fluoro-2-methoxy-4-((1R,2R)-2-(trifluoromethyl)cyclopropyl)phenyl)-N-(isoxazol-3-yl)-2-oxo-1,2-dihydroquinoline-6-sulfonamide], the “CYP3A4 mRNA Induct Hu 10 uM POC” value in series [1] is 24.57%.

Broadly, the pIC50 is −log10 of the IC50, conventionally taken in molar units. As for `COc1cc([C@@H]2C[C@H]2C(F)(F)F)ccc1-n1c(=O)ccc2cc(S(=O)(=O)Nc3ccon3)ccc21` (single isomer, unassigned) [Example 38], the pIC50 in series [2] was 8.00. The “CYP3A4 mRNA Induct Hu 10 uM POC” value in series [1] is 29.06%.

With `COc1cc([C@H]2C[C@@H]2C(F)(F)F)ccc1-n1c(=O)ccc2cc(S(=O)(=O)Nc3ccon3)ccc21` (single isomer, unassigned) [Example 39], the pIC50 in series [2] was 8.10. Moreover, the “CYP3A4 mRNA Induct Hu 10 uM POC” value in series [1] worked out at 38.35%.

As to “(P)-1-(5-fluoro-2-methoxy-4-((1S,2S)-2-((trifluoromethoxy)methyl)cyclopropyl)phenyl)-N-(isoxazol-3-yl)-2-oxo-1,2-dihydroquinoline-6-sulfonamide [Example 33]”, in series [2], the pIC50 was 8.40. Further, in series [1], the “CYP3A4 mRNA Induct Hu 10 uM POC” value stood at 139.9%.
